Source: PubChem BioAssay AID651855 (NMMLSC, 2012)
The source made the active and inactive calls.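 How the source made its calls: active means compounds whose fitted concentration for half loss of dye binding is under 10 µM; inactive means the rest.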

Columns and labels:
[1] = FAP-tagged hCCR5 fluorogen binding interference – cell-based, FAP-tagged human CCR5, Powderset3, counter-screen for beta2AR agonist project, dose response (AID 651855); details: FAP-tagged hCCR5 cells, MG2p fluorogen binding, flow cytometry; stronger effect = higher value
[2] = system: FAP-tagged hCCR5 cells, MG2p fluorogen binding, flow cytometry; assay: as above

SMILES | percent span [1] | EC50 [2] [nM]
O=C(NC1CCc2ccccc21)c1cc(COc2cncc(Cl)c2)on1 (configuration not stated) | 4.03% (inactive) | –
C=CCn1c(CCNC(=O)c2cccs2)nnc1SCC(=O)c1ccc(Br)cc1 | – | 17.5
CC(Oc1ccc(Cl)cc1Cl)c1nc(-c2ccc(NC(=O)c3ccccn3)cc2)no1 (configuration not stated) | – | 427
Cc1ccc(-c2nc3ncccc3o2)cc1NC(=O)c1sc2ccccc2c1Cl | 35.8% (inactive) | –
CC(Oc1ccc(Cl)cc1Cl)c1nc(-c2ccc(NC(=O)c3ccco3)cc2)no1 (configuration not stated) | 42.1% (inactive) | –
COc1ccc(OC)c(CCNC(=O)C2CCN(c3nnc(-n4cccc4)s3)CC2)c1 | – | 919
COCc1ccc(CN2CCCC(C(=O)Nc3ccc(-c4cccc(OC)c4)cc3)C2)o1 (configuration not stated) | 41.6% (inactive) | –
CCC(NC(=O)c1cc(COc2ccc(C)nc2)on1)c1ccc(C)cc1 (configuration not stated) | 53.2% (inactive) | –
C=CCn1c(CCNC(=O)c2cccs2)nnc1SCC(=O)c1cccc([N+](=O)[O-])c1 | – | 2.41
CSc1nc(SCCO)c2sc3nc(-c4ccco4)c4c(c3c2n1)CC(C)(C)OC4 | – | 1870
Clc1ccc(OCc2nnc(SCc3nc4ccccc4[nH]3)n2Cc2ccco2)cc1 | – | 10
CC1(C)Cc2c(c(N3CCCC3)nc3sc4c(N5CCN(CCO)CC5)ncnc4c23)CO1 | – | 2960
c1ccc(-c2nnc(SCc3nc4ccccc4[nH]3)n2Cc2ccco2)cc1 | 15.8% (inactive) | –
CC(C)CNc1ncnc2c1sc1nc(N3CCOCC3)c3c(c12)CC(C)(C)OC3 | -9.78% (inactive) | –
CC1(C)Cc2c(c(N3CCOCC3)nc3sc4c(NCCN)ncnc4c23)CO1 | 116% (inactive) | –
Cc1ccc(NC(=O)C(c2ccc(Cl)cc2)N2CCOCC2)cc1 (configuration not stated) | 49.5% (inactive) | –

SMILES | percent span [1] | EC50 [2] [nM]
CN(Cc1ccccc1)S(=O)(=O)c1ccc(NS(=O)(=O)Cc2ccccc2)cc1 | – | 106
CC(Sc1nc(-c2ccccc2)cc(C(F)(F)F)n1)C(=O)N1CCOCC1 (configuration not stated) | – | 26.9
Cc1ccc(OCc2nnc(SCc3nc4ccccc4[nH]3)n2Cc2ccco2)cc1 | 61.9% (inactive) | –
CCCCN(C(=O)c1ccc(NC(=O)C(C)C)cc1)c1ccccc1 | 31.9% (inactive) | –
Cc1ccc(Cn2ccc(NC(=O)c3cc4nc(-c5ccco5)cc(C(F)(F)F)n4n3)n2)cc1 | – | 8.96
C=CCn1c(CCNC(=O)c2cccs2)nnc1SCC(=O)c1ccc(Cl)cc1 | – | 7.09
Cc1ccccc1N1CCN(c2ncnc3c2cnn3Cc2ccc(Cl)cc2)CC1 | – | 4330
Cc1ccc(OCc2cc(C(=O)N(C)Cc3cnn(-c4ccccc4C)c3)no2)cn1 | – | 110
O=C(c1cc2c(=O)n3ccccc3nc2s1)N1CCN(Cc2ccc3c(c2)OCO3)CC1 | 39.7% (inactive) | –
CC(=O)Nc1ccc(S(=O)(=O)N2CCC(Oc3ccc(-n4cnnn4)cc3)CC2)cc1 | – | 60.9
Cc1ncc(CN2CCCC(C(=O)Nc3ccc(-c4cccc(F)c4)cc3)C2)s1 (configuration not stated) | – | 1240
COC(=O)c1ccc(CNC(=O)c2cc(COc3cncc(Cl)c3)on2)cc1 | 28.2% (inactive) | –
CC(Sc1nc(-c2ccccc2)cc(C(F)(F)F)n1)C(=O)N1CCCCC1 (configuration not stated) | – | 25.5
Clc1cccc(-c2nnc(SCc3nc4ccccc4[nH]3)n2Cc2ccco2)c1 | – | 10400
CC(C)Cc1nc2sc3c(NCc4ccco4)ncnc3c2c2c1COC(C)(C)C2 | – | 39.4
Cn1c(N2CCN(c3ccccn3)CC2)nc2c1c(=O)n(Cc1ccc(Cl)cc1)c(=O)n2C | – | 20.9
